This experiment relates to SOD1. Kind of experiment: Analysis of SOD1 in iPS cell-derived astrocytes (Western blotting). The format is cell-based, human. The settings on record: astrocytes differentiated from ALS patient iPS cells (SOD1 L106V); 5 nM, 50 nM, 500 nM and 5 μM; 48 hours incubation; Western blotting vs vehicle 0.5% DMSO. As to the method:
The iPS cell-derived astrocytes were seeded to a 6-well plate at a density of 250,000 cells/well. After a vehicle [0.5% dimethylsulfoxide (DMSO)], cycloheximide at a final concentration of 5 μg/ml, and Atorvastatin Calcium Salt (Toronto Research Chemicals Inc.) at various final concentrations (5 nM, 50 nM, 500 nM and 5 μM) were added, the plate was incubated for 48 hours. Subsequently, the cells were recovered, and lysed using a 20 mM Hepes, pH 7.4, containing 1% triton X-100, 10% glycerol, 5 mM EDTA, 120 mM NaCl and protease inhibitor cocktail (Complete; Roche), on ice for 30 minutes. The cell lysate was centrifuged at 15,000 rpm, 4° C. for 30 minutes, and the supernatant was recovered. Western blotting was performed using this cytolysis supernatant. Specifically, 20 μg aliquot of the protein was separated by SDS-PAGE (4-12% polyacrylamide gels), transferred to a PVDF membrane, and incubated with an anti-SOD1 antibody (1:2000 dilution) (Stressgen Company) or an anti-β-actin antibody (1:5000 dilution) (Sigma-Aldrich Company). After the incubation, the amount expressed was detected by ECL (Enhanced ChemiLuminescence) using an HRP-linked anti-rabbit IgG antibody (1:5000; GE healthcare) and an HRP-linked anti-mouse IgG antibody (1:5000; GE healthcare). […] Meanwhile, when the vehicle DMSO alone was added to the human iPS cell 253G4 described by Nakagawa M et al. in Nat. Biotechnol. […]

Each structure is given as a SMILES string. Where a name gives a salt, the structure may show the parent alone.

From patent US20130115622A1, “PHARMACEUTICAL COMPOSITION FOR PREVENTION AND TREATMENT OF AMYOTROPHIC LATERAL SCLEROSIS” (KYOTO UNIVERSITY, priority 2009, published 2013) come the findings set out here.

`CC(C)c1c(C(=O)Nc2ccccc2)c(-c2ccccc2)c(-c2ccc(F)cc2)n1CC[C@H](O)C[C@@H](O)CC(=O)O` [Atorvastatin Calcium Salt, (3R,5S)-7-[2-(4-fluorophenyl)-5-(1-methylethyl)-3-phenyl-4-phenylaminocarbonyl-1H-pyrrol-1-yl]-3,5-dihydroxyheptanoic acid]: the “expression of SOD1 (amount of SOD1 protein)” value is “a reduction in the expression of SOD1 was observed”.
